Experiments:
Assay in all cases: RBC kinase panel
Assay type in all cases: biochemical
Details in all cases: ATP 10 μM, Data1, Data2
CK2a2 = target: T1, CK2a2 (Homo sapiens, UniProt P19784)
T1 construct: purchased Reaction Biology Corporation
Outline: (§1)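 Using 10 μM ATP for every kinase, activity of 369 human kinases was measured in duplicate in the presence of 1 μM test compound.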

FRK/PTK5 = target: T2, FRK/PTK5 (Homo sapiens, UniProt P42685)
T2 construct: purchased Reaction Biology Corporation
Outline: as §1

MSSK1/STK23 = target: T3, MSSK1/STK23 (Homo sapiens, UniProt Q9UPE1)
T3 construct: purchased Reaction Biology Corporation
Outline: as §1

DLK/MAP3K12 = target: T4, DLK/MAP3K12 (Homo sapiens, UniProt Q12852)
T4 construct: purchased Reaction Biology Corporation
Outline: as §1

DAPK2 = target: T5, DAPK2 (Homo sapiens, UniProt Q9UIK4)
T5 construct: purchased Reaction Biology Corporation
Outline: as §1

MEKK6 = target: T6, MEKK6 (Homo sapiens, UniProt O95382)
T6 construct: purchased Reaction Biology Corporation
Outline: as §1

ERN2/IRE2 = target: T7, ERN2/IRE2 (Homo sapiens, UniProt Q76MJ5)
T7 construct: purchased Reaction Biology Corporation
Outline: as §1

CAMKK2 = target: T8, CAMKK2 (Homo sapiens, UniProt Q96RR4)
T8 construct: purchased Reaction Biology Corporation
Outline: as §1

PRKX = target: T9, PRKX (Homo sapiens, UniProt P51817)
T9 construct: purchased Reaction Biology Corporation
Outline: as §1

CDK6/cyclin D1 = target: T10, CDK6/cyclin D1 (Homo sapiens, UniProt Q00534)
T10 construct: purchased Reaction Biology Corporation
Outline: as §1

RAF1 = target: T11, RAF1 (Homo sapiens, UniProt P04049)
T11 construct: purchased Reaction Biology Corporation
Outline: as §1

CAMK1a = target: T12, CAMK1a (Homo sapiens, UniProt Q14012)
T12 construct: purchased Reaction Biology Corporation
Outline: as §1

EPHB3 = target: T13, EPHB3 (Homo sapiens, UniProt P54753)
T13 construct: purchased Reaction Biology Corporation
Outline: as §1

PKCa = target: T14, PKCa (Homo sapiens, UniProt P17252)
T14 construct: purchased Reaction Biology Corporation
Outline: as §1

PAK1 = target: T15, PAK1 (Homo sapiens, UniProt Q13153)
T15 construct: purchased Reaction Biology Corporation
Outline: as §1

GRK6 = target: T16, GRK6 (Homo sapiens, UniProt P43250)
T16 construct: purchased Reaction Biology Corporation
Outline: as §1

MLCK/MYLK = target: T17, MLCK/MYLK (Homo sapiens, UniProt Q15746)
T17 construct: purchased Reaction Biology Corporation
Outline: as §1

GRK7 = target: T18, GRK7 (Homo sapiens, UniProt Q8WTQ7)
T18 construct: purchased Reaction Biology Corporation
Outline: as §1

SIK3 = target: T19, SIK3 (Homo sapiens, UniProt Q9Y2K2)
T19 construct: purchased Reaction Biology Corporation
Outline: as §1

CAMKK1 = target: T20, CAMKK1 (Homo sapiens, UniProt Q8N5S9)
T20 construct: purchased Reaction Biology Corporation
Outline: as §1

DYRK1B = target: T21, DYRK1B (Homo sapiens, UniProt Q9Y463)
T21 construct: purchased Reaction Biology Corporation
Outline: as §1

MARK2/PAR-1Ba = target: T22, MARK2/PAR-1Ba (Homo sapiens, UniProt Q7KZI7)
T22 construct: purchased Reaction Biology Corporation
Outline: as §1

CDK3/cyclin E = target: T23, CDK3/cyclin E (Homo sapiens, UniProt Q00526)
T23 construct: purchased Reaction Biology Corporation
Outline: as §1

PEAK1 = target: T24, PEAK1 (Homo sapiens, UniProt Q9H792)
T24 construct: purchased Reaction Biology Corporation
Outline: as §1

PIM1 = target: T25, PIM1 (Homo sapiens, UniProt P11309)
T25 construct: purchased Reaction Biology Corporation
Outline: as §1

MAPKAPK3 = target: T26, MAPKAPK3 (Homo sapiens, UniProt Q16644)
T26 construct: purchased Reaction Biology Corporation
Outline: as §1

CHK2 = target: T27, CHK2 (Homo sapiens, UniProt O96017)
T27 construct: purchased Reaction Biology Corporation
Outline: as §1

MYLK4 = target: T28, MYLK4 (Homo sapiens, UniProt Q86YV6)
T28 construct: purchased Reaction Biology Corporation
Outline: as §1

FAK/PTK2 = target: T29, FAK/PTK2 (Homo sapiens, UniProt Q05397)
T29 construct: purchased Reaction Biology Corporation
Outline: as §1

KDR/VEGFR2 = target: T30, KDR/VEGFR2 (Homo sapiens, UniProt P35968)
T30 construct: purchased Reaction Biology Corporation
Outline: as §1

HIPK4 = target: T31, HIPK4 (Homo sapiens, UniProt Q8NE63)
T31 construct: purchased Reaction Biology Corporation
Outline: as §1

LYN = target: T32, LYN (Homo sapiens, UniProt P07948)
T32 construct: purchased Reaction Biology Corporation
Outline: as §1

TYRO3/SKY = target: T33, TYRO3/SKY (Homo sapiens, UniProt Q06418)
T33 construct: purchased Reaction Biology Corporation
Outline: as §1

T8 sequence (Q96RR4 whole entry): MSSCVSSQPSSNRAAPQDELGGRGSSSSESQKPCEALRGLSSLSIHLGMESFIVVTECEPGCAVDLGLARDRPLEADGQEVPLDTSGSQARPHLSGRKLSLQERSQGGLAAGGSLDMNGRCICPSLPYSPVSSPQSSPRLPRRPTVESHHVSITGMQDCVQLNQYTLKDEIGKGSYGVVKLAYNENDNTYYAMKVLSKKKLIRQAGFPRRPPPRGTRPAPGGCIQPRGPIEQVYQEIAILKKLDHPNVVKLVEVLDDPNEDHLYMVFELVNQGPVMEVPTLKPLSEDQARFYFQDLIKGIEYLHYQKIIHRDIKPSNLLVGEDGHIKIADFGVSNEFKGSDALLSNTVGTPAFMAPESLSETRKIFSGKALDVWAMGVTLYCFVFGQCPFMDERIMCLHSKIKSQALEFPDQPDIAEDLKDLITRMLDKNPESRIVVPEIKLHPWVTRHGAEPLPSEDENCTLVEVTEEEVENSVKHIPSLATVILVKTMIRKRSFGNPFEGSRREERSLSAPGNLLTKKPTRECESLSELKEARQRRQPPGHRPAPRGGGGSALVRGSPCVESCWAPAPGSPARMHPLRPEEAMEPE
T29 sequence (Q05397 whole entry): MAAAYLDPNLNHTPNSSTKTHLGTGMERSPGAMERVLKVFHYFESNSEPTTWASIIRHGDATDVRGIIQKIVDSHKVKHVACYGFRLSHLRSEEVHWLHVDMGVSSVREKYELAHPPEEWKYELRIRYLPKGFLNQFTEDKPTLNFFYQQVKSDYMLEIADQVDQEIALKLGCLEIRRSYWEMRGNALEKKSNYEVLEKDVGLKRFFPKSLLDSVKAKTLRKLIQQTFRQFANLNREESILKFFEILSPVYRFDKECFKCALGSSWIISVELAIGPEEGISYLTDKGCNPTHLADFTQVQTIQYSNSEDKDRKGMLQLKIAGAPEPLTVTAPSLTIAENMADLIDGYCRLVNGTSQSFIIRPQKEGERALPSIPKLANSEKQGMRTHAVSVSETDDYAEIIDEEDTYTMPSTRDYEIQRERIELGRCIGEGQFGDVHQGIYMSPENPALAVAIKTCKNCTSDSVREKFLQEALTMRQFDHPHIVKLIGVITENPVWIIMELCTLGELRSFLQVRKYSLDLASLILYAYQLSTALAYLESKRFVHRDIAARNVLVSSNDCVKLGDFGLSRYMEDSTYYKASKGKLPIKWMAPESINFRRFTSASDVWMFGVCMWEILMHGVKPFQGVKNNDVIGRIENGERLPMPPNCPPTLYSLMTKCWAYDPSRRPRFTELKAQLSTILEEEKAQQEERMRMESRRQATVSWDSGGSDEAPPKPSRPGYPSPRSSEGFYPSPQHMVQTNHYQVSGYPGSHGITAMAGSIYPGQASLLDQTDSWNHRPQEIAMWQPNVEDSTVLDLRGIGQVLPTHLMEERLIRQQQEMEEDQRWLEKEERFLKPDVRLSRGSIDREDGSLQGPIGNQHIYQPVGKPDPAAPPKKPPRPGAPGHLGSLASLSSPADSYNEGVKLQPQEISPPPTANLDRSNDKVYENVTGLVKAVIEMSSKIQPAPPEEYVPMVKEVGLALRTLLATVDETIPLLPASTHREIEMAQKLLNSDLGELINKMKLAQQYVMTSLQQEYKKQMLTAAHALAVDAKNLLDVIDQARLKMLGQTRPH
T24 sequence (Q9H792 whole entry): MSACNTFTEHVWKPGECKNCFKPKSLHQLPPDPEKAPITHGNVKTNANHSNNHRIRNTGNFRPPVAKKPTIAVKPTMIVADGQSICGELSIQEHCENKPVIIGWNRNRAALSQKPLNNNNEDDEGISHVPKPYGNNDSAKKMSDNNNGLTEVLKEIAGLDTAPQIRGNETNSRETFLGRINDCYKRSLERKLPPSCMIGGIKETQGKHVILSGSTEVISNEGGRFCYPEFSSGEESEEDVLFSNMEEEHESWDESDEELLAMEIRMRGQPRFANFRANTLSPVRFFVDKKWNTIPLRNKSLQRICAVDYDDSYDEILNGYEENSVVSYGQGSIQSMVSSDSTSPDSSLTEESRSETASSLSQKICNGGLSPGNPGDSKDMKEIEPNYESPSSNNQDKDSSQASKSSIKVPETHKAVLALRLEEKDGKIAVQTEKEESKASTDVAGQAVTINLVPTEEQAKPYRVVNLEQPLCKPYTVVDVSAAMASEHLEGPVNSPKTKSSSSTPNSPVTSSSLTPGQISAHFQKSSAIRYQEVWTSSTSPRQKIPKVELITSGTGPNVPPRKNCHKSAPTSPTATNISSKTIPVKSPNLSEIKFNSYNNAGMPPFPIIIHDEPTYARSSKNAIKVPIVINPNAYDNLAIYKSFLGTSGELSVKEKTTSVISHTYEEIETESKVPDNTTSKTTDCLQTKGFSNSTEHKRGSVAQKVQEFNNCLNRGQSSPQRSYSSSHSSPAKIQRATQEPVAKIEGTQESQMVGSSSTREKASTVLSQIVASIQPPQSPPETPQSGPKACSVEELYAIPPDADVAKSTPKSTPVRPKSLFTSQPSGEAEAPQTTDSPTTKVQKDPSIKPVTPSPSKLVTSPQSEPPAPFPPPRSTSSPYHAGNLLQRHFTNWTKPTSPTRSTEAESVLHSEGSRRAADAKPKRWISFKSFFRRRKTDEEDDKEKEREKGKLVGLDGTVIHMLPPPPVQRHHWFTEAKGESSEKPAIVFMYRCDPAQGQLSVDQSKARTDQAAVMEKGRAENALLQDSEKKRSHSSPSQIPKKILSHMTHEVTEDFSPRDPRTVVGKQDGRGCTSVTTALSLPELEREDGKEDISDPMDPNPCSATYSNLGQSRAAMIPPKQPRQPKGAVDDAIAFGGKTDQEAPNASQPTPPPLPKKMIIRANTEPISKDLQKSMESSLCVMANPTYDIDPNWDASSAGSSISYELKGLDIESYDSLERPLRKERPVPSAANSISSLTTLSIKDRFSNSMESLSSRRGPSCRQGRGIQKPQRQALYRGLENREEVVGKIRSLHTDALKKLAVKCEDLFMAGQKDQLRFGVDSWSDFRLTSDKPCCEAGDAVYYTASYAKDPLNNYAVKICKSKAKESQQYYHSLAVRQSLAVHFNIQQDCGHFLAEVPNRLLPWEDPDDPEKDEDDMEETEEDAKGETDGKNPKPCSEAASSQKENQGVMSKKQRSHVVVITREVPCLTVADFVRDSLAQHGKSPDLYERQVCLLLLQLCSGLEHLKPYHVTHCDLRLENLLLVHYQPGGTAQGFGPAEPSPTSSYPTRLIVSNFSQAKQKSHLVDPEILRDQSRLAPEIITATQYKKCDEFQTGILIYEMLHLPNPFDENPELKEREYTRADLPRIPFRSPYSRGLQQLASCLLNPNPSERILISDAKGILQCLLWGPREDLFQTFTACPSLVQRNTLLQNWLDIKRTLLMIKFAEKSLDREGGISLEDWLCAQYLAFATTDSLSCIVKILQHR
T11 sequence (P04049 whole entry): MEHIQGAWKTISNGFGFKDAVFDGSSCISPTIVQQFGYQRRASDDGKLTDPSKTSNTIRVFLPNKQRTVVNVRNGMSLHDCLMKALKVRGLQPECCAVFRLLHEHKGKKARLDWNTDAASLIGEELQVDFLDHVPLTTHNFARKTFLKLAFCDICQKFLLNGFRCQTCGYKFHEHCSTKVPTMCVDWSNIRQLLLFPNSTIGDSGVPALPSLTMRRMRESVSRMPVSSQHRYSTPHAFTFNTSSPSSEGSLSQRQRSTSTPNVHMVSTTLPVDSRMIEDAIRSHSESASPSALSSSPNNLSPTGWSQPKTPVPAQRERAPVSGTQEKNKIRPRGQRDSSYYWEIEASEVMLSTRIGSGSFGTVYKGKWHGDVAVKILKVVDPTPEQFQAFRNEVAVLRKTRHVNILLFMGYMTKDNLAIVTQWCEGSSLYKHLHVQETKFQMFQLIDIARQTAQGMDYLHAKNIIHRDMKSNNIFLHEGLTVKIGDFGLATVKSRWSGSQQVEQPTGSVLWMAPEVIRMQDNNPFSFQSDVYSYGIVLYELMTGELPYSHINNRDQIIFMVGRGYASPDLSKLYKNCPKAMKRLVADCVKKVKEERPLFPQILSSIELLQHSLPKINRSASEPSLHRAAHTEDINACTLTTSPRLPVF
T26 sequence (Q16644 whole entry): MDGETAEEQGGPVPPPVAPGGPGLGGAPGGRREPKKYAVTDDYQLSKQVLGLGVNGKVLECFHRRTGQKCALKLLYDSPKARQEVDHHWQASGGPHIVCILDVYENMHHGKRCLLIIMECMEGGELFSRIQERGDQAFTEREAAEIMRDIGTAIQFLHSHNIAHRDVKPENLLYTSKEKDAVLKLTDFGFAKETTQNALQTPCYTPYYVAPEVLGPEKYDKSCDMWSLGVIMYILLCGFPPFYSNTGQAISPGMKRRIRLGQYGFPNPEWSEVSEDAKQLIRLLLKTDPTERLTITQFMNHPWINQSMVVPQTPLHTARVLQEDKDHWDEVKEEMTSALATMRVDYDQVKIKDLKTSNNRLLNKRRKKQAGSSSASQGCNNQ
T31 sequence (Q8NE63 whole entry): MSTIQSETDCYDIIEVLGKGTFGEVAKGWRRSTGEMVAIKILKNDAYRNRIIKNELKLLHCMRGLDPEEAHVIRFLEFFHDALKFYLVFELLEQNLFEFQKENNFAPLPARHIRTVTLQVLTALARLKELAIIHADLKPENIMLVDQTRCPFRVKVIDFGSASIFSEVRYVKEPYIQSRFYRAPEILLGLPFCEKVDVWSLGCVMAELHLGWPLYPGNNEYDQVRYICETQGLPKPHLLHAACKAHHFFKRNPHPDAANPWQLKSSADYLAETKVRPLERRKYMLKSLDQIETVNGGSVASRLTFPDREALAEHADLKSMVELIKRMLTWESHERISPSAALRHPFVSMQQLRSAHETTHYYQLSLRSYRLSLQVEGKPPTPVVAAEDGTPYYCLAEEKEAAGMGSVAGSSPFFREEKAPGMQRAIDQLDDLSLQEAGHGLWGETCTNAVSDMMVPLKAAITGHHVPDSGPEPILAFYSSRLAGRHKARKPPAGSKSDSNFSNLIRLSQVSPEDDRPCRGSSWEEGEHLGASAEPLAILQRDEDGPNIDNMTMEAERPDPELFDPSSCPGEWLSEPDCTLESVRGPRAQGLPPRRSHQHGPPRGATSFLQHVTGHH

Which results are given for `CC(=O)Nc1nc2ccc(-c3cnc(C)c(NC(=O)OC4CCCCC4)c3)cc2s1` [PK68, cyclohexyl (5-(2-acetamidobenzo[d]thiazol-6-yl)-2-methylpyridin-3-yl)carbamate]?
Activity% (CK2a2; 1 μM): 100.37%; activity at 1 µM (CK2a2): 101%; Activity% (FRK/PTK5; 1 μM): 97.78%; activity at 1 µM (FRK/PTK5): 101%; Activity% (MSSK1/STK23; 1 μM): 100.79%; activity at 1 µM (MSSK1/STK23): 103%; Activity% (DLK/MAP3K12; 1 μM): 94.64%; activity at 1 µM (DLK/MAP3K12): 103%; Activity% (DAPK2; 1 μM): 107.36%; activity at 1 µM (DAPK2): 109%; Activity% (MEKK6; 1 μM): 88.83%; activity at 1 µM (MEKK6): 91.3%; Activity% (ERN2/IRE2; 1 μM): 92.56%; activity at 1 µM (ERN2/IRE2): 93.1%; Activity% (CAMKK2; 1 μM): 79.89%; activity at 1 µM (CAMKK2): 80.1%; Activity% (PRKX; 1 μM): 103.46%; activity at 1 µM (PRKX): 104%; Activity% (CDK6/cyclin D1; 1 μM): 93.73%; activity at 1 µM (CDK6/cyclin D1): 93.8%; Activity% (RAF1; 1 μM): 75.37%; activity at 1 µM (RAF1): 76.1%; Activity% (CAMK1a; 1 μM): 98.23%; activity at 1 µM (CAMK1a): 98.6%; Activity% (EPHB3; 1 μM): 98.23%; activity at 1 µM (EPHB3): 98.8%; Activity% (PKCa; 1 μM): 98.94%; activity at 1 µM (PKCa): 99.5%; Activity% (PAK1; 1 μM): 101.03%; activity at 1 µM (PAK1): 102%; Activity% (GRK6; 1 μM): 99.89%; activity at 1 µM (GRK6): 102%; Activity% (MLCK/MYLK; 1 μM): 97.43%; activity at 1 µM (MLCK/MYLK): 99.7%; Activity% (GRK7; 1 μM): 95.94%; activity at 1 µM (GRK7): 96.5%; Activity% (SIK3; 1 μM): 94.84%; activity at 1 µM (SIK3): 99.4%; Activity% (CAMKK1; 1 μM): 111.65%; activity at 1 µM (CAMKK1): 113%; Activity% (DYRK1B; 1 μM): 97.55%; activity at 1 µM (DYRK1B): 99.4%; Activity% (MARK2/PAR-1Ba; 1 μM): 107.76%; activity at 1 µM (MARK2/PAR-1Ba): 110%; Activity% (CDK3/cyclin E; 1 μM): 91.48%; activity at 1 µM (CDK3/cyclin E): 91.7%; Activity% (PEAK1; 1 μM): 100.13%; activity at 1 µM (PEAK1): 103%; Activity% (PIM1; 1 μM): 100.16%; activity at 1 µM (PIM1): 102%; Activity% (MAPKAPK3; 1 μM): 100.67%; activity at 1 µM (MAPKAPK3): 102%; Activity% (CHK2; 1 μM): 98.81%; activity at 1 µM (CHK2): 99.1%; Activity% (MYLK4; 1 μM): 89.75%; activity at 1 µM (MYLK4): 92.7%; Activity% (FAK/PTK2; 1 μM): 96.95%; activity at 1 µM (FAK/PTK2): 98%; Activity% (KDR/VEGFR2; 1 μM): 88.68%; activity at 1 µM (KDR/VEGFR2): 90.3%; Activity% (HIPK4; 1 μM): 72.16%; activity at 1 µM (HIPK4): 74.6%; Activity% (LYN; 1 μM): 92.90%; activity at 1 µM (LYN): 95.3%; Activity% (TYRO3/SKY; 1 μM): 97.95%; activity at 1 µM (TYRO3/SKY): 99.6%
